The text below walks through data of patent US8703179B2, “Mucosal formulation” (Kimberly-Clark Worldwide, Inc., priority 2006, dated 2014).

Values after ≈ are worked out from the molar mass of the structure shown. Like-named read-outs stand apart in the source and are kept apart here.

Common to all, as to format: cell-based
The test system of one assay is Candida albicans. The assay is described as follows: Growth inhibition (minimum inhibitory concentration, gross turbidity). The note with it: read-out: Minimum Inhibitory Concentration C. albicans. The method, then:
(§1) The ability of the phosphocholine derivatives of Examples 1-2 to inhibit growth of Candida albicans, Staphylococcus aureus, Lactobacillus acidophilus, and Gardnerella vaginale was tested. Each phosphocholine derivative (at concentrations ranging from 0 to 500 micrograms per milliliter) was dissolved into a broth media and 6 wt. % ethanol. Thereafter, 0.1 milliliter of each solution was inoculated in 1.0 milliliter of a growth media containing the microorganism of interest. The growth media was TSB media for Candida albicans and Staphylococcus aureus, MRS broth for Lactobacillus acidophilus, and NYC-3 broth enriched proteose peptone for Gardnerella vaginale. The concentration of the microorganism in the growth media was 10^4 colony forming units (“CFU”) per milliliter.
(§2) Thereafter, the gross turbidity of the media was monitored at 24, 48, and 72 hours time intervals. Gross turbidity is an indicative of growth inhibition and is determined using visual determination or a spectrophotometer. The concentration of the phosphocholine derivative at which no turbidity is detected is designated as the “minimum inhibitory concentration.” Phosphocholine derivatives having lower minimum inhibitory concentrations are generally considered to have better antimicrobial efficacy.

The subject of another assay is Gardnerella vaginale. Described as above. The note with it: read-out: Minimum Inhibitory Concentration G. vaginale. The method, then: as §1, §2
Assay [1] has as its system Lactobacillus acidophilus. The description is as above. The note with it: read-out: Minimum Inhibitory Concentration L. acidophilus. The protocol: as §1, §2
For the next assay, the system named is Staphylococcus aureus. The description is as above. The note with it: read-out: Minimum Inhibitory Concentration S. aureus. The method, then: as §1, §2
The subject of assay [2] is Candida albicans (C. albicans). The assay is described as follows: Time-dependent inhibition (organism count). The text has this:
(§3) Hexadecyl phosphocholine (“BRB-1”) was studied for inhibition of Candida albicans (C. albicans), Staphylococcus aureus (S. aureus), and lactobacilli. The results are shown below in Tables 3-4. Tetradecyl phosphocholine (“BRB-3”) was also studied for inhibition of C. albicans aureus, and lactobaccili.

The subject of assay [3] is L. acidophilus (lactobacilli). The assay is described as follows: Time-dependent inhibition (organism count). As to conditions: for Organism Count / Percent Reduction: L. acidophilus.
Excerpt: as §3

Assay [4] relates to Staphylococcus aureus (S. aureus). The assay is described as follows: Time-dependent inhibition (organism count).
Excerpt: as §3

Setting [5] is: TSB media, 10^4 CFU/ml, turbidity at 24, 48, 72 hours.
The mark [6] stands for this setting: NYC-3 broth, 10^4 CFU/ml, turbidity at 24, 48, 72 hours.
[7] abbreviates: MRS broth, 10^4 CFU/ml, turbidity at 24, 48, 72 hours.

For `CCCCCCCCCCCCCCOP(=O)([O-])OCC[N+](C)(C)C`, the MIC came out at 62.5 µg/mL (≈ 165 µM) with Candida albicans (setting [5]), 250 µg/mL (≈ 659 µM) in the assay on Gardnerella vaginale (setting [6]), 250 µg/mL (≈ 659 µM) in assay [1] (setting [7]) and 250 µg/mL (≈ 659 µM) with Staphylococcus aureus (setting [5]).

In the case of `CCCCCCCCCCCCCCCCOP([O-])(=S)OCC[N+](C)(C)C` (stereo not shown), the MIC (in the assay with Candida albicans (72 h); in the assay on Gardnerella vaginale (72 h); in assay [1] (72 h); in the assay with Staphylococcus aureus (72 h)) was 31.2 µg/mL (≈ 73.8 µM) in each case.

Consider `CCCCCCCCCCCCCCCCOCC(O)COP(=O)([O-])OCC[N+](C)(C)C` (racemic), for which the MIC in the assay on Candida albicans (setting [5]) was 125 µg/mL (≈ 260 µM); in the assay on Gardnerella vaginale (setting [6]), 250 µg/mL (≈ 519 µM); in assay [1] (setting [7]), 250 µg/mL (≈ 519 µM); in the assay with Staphylococcus aureus (setting [5]), 250 µg/mL (≈ 519 µM).

Take `CCCCCCCCCCCCCCCCOP(=O)([O-])OCC[N+](C)(C)C` [BRB-1, hexadecyl phosphocholine]: the MIC came out at 15.6 µg/mL (≈ 38.3 µM) with Candida albicans (setting [5]), 31.2 µg/mL (≈ 76.7 µM) in the assay on Gardnerella vaginale (setting [6]), 125 µg/mL (≈ 307 µM) in assay [1] (setting [7]) and 125 µg/mL (≈ 307 µM) in the assay with Staphylococcus aureus (setting [5]). Moreover, the “Organism Count” value in assay [2] (10 μg/ml, 0 Hour) is reported as 8.4 × 10^5 CFU/ml; in assay [2] (10 μg/ml, 1 Hour), 2.3 × 10^5 CFU/ml; in assay [2] (10 μg/ml, 2 Hours), 2.1 × 10^3 CFU/ml; in assay [2] (10 μg/ml, 4 Hours), 50 CFU/ml; in assay [2] (100 μg/ml, 0 Hour), 2.9 × 10^5 CFU/ml; in assay [2] (100 μg/ml, 1 Hour), 1.2 × 10^5 CFU/ml. Moreover, the “Organism Count” value in assay [2] (100 μg/ml, 2 Hours) is 8.0 × 10^2 CFU/ml; in assay [2] (100 μg/ml, 4 Hours), 3.8 × 10^2 CFU/ml; in assay [3] (1 μg/ml, 0 Hour) it was 7.0 × 10^4 CFU/ml; in assay [3] (1 μg/ml, 1 Hour), 8.6 × 10^4 CFU/ml; in assay [3] (1 μg/ml, 2 Hours), 7.6 × 10^4 CFU/ml; in assay [3] (1 μg/ml, 4 Hours) it was 6.7 × 10^4 CFU/ml. Further, the “Organism Count” value is 1.8 × 10^5 CFU/ml in assay [3] (10 μg/ml, 0 Hour); 20 CFU/ml in assay [3] (10 μg/ml, 1 Hour); 1.5 × 10^5 CFU/ml in assay [3] (100 μg/ml, 0 Hour); 70 CFU/ml in assay [3] (100 μg/ml, 1 Hour); 5.3 × 10^4 CFU/ml in assay [4] (10 μg/ml, 0 Hour); 7.3 × 10^2 CFU/ml in assay [4] (10 μg/ml, 1 Hour). For the same molecule, the “Organism Count” value in assay [4] (10 μg/ml, 2 Hours) is 60 CFU/ml; in assay [4] (100 μg/ml, 0 Hour), 4.8 × 10^4 CFU/ml; in assay [4] (100 μg/ml, 1 Hour) it was 1.4 × 10^2 CFU/ml; in assay [4] (100 μg/ml, 2 Hours), 20 CFU/ml. Besides, the “% Reduction” value in assay [2] (10 μg/ml, 1 Hour) is 68.0%; in assay [2] (10 μg/ml, 2 Hours), 99.7%; in assay [2] (10 μg/ml, 4 Hours), 99.99%; in assay [2] (100 μg/ml, 0 Hour), 27.5%; in assay [2] (100 μg/ml, 1 Hour) it was 70.0%; in assay [2] (100 μg/ml, 2 Hours), 99.8%. Further, the “% Reduction” value came out at 99.9% in assay [2] (100 μg/ml, 4 Hours); 18.5% in assay [4] (10 μg/ml, 0 Hour); 98.9% in assay [4] (10 μg/ml, 1 Hour); 99.91% in assay [4] (10 μg/ml, 2 Hours); 99.98% in assay [4] (10 μg/ml, 4 Hours); 39.2% in assay [4] (100 μg/ml, 0 Hour). Also, the “% Reduction” value in assay [4] (100 μg/ml, 1 Hour) stood at 99.8%; in assay [4] (100 μg/ml, 2 Hours), 99.97%; in assay [4] (100 μg/ml, 4 Hours), 99.99%. For the same molecule, the “Percent Reduction” value in assay [3] (1 μg/ml, 0 Hour) is given as 6.7%; in assay [3] (1 μg/ml, 4 Hours), 10.7%; in assay [3] (10 μg/ml, 0 Hour), 18.2%; in assay [3] (10 μg/ml, 1 Hour) it was 99.99%; in assay [3] (10 μg/ml, 6 Hours), 99.99%; in assay [3] (100 μg/ml, 0 Hour), 31.8%. In addition, the “Percent Reduction” value in assay [3] (100 μg/ml, 1 Hour) is reported as 99.97%; in assay [3] (100 μg/ml, 6 Hours), 99.99%.

Take tetradecyl phosphocholine [BRB-3]: the “% Reduction” value in assay [2] (10 μg/ml, 0 Hour) is 2.7%; in assay [2] (10 μg/ml, 1 Hour), 20.5%; in assay [2] (10 μg/ml, 2 Hours), 30.1%; in assay [2] (10 μg/ml, 4 Hours), 52.0%; in assay [2] (100 μg/ml, 0 Hour) it was 26.0%; in assay [2] (100 μg/ml, 1 Hour), 43.0%. The “% Reduction” value was found to be 51.0% in assay [2] (100 μg/ml, 2 Hours); 46.0% in assay [2] (100 μg/ml, 4 Hours); 18.3% in assay [4] (10 μg/ml, 1 Hour); 25.8% in assay [4] (10 μg/ml, 2 Hours); 38.3% in assay [4] (10 μg/ml, 4 Hours); 7.1% in assay [4] (100 μg/ml, 0 Hour). Further, the “% Reduction” value was found to be 97.9% in assay [4] (100 μg/ml, 1 Hour); 99.9% in assay [4] (100 μg/ml, 2 Hours); 99.99% in assay [4] (100 μg/ml, 4 Hours). The “Organism Count” value is 7.1 × 10^4 CFU/ml in assay [2] (10 μg/ml, 0 Hour); 5.8 × 10^4 CFU/ml in assay [2] (10 μg/ml, 1 Hour); 5.1 × 10^4 CFU/ml in assay [2] (10 μg/ml, 2 Hours); 3.5 × 10^4 CFU/ml in assay [2] (10 μg/ml, 4 Hours); 7.4 × 10^4 CFU/ml in assay [2] (100 μg/ml, 0 Hour); 5.7 × 10^4 CFU/ml in assay [2] (100 μg/ml, 1 Hour). For the same molecule, the “Organism Count” value in assay [2] (100 μg/ml, 2 Hours) is on record as 4.9 × 10^4 CFU/ml; in assay [2] (100 μg/ml, 4 Hours), 5.4 × 10^4 CFU/ml; in assay [3] (10 μg/ml, 0 Hour) it was 3.1 × 10^5 CFU/ml; in assay [3] (10 μg/ml, 1 Hour), 2.9 × 10^5 CFU/ml; in assay [3] (10 μg/ml, 2 Hours), 2.4 × 10^5 CFU/ml; in assay [3] (10 μg/ml, 4 Hours), 2.3 × 10^5 CFU/ml. Besides, the “Organism Count” value in assay [3] (100 μg/ml, 0 Hour) is 4.5 × 10^5 CFU/ml; in assay [4] (10 μg/ml, 0 Hour) it was 1.4 × 10^5 CFU/ml; in assay [4] (10 μg/ml, 1 Hour) it was 9.8 × 10^4 CFU/ml; in assay [4] (10 μg/ml, 2 Hours) it was 8.9 × 10^4 CFU/ml; in assay [4] (10 μg/ml, 4 Hours), 7.4 × 10^4 CFU/ml; in assay [4] (100 μg/ml, 0 Hour), 1.3 × 10^5 CFU/ml. Besides, the “Organism Count” value in assay [4] (100 μg/ml, 1 Hour) is given as 2.9 × 10^3 CFU/ml; in assay [4] (100 μg/ml, 2 Hours) it was 1.1 × 10^2 CFU/ml. In addition, the “Percent Reduction” value in assay [3] (10 μg/ml, 0 Hour) is listed as 16.2%; in assay [3] (10 μg/ml, 1 Hour), 21.6%; in assay [3] (10 μg/ml, 2 Hours) it was 35.1%; in assay [3] (10 μg/ml, 4 Hours) it was 37.8%; in assay [3] (100 μg/ml, 0 Hour), 88.5%; in assay [3] (100 μg/ml, 1 Hour), 99.99%. The “Inhibition of lactobacilli (in words)” value in assay [3] (Tables 4 and 5, ascribed to organism instability in the media and the protocol) was “some inhibtion”.
